Experimental data from article PMC12512194, “The Allosteric Regulator Inositol Phosphate Dramatically Affects the Efficacy and Selectivity of Inhibitors for Different HDAC Complexes” (Journal of the American Chemical Society, 2025).

Legend:
HDAC3 = biological target: T1, HDAC3 (Homo sapiens, UniProt O15379); test: HDAC3 protein level / degradation by immunoblot in HCT116 cells; format: cell-based; conditions: even at 10 μM
T1 construct: endogenous in cells; host or cells: HCT116
Experimental: (§1) complex and inhibitor were then incubated at 20 °C, 100 RPM for 2 hours . After incubation, 10 μL of the Boc -(Ac)Lys -AMC substrate, dissolved in HDAC assay buffer, was added to each well. The plate was incubate d at 30 °C, 100 RPM for 1 hour, followed by addition of 50 μL of a developer buffer (50 mM Tris pH 7.5, 100 mM NaCl, 10 mg/mL trypsin) to quench the reaction. The reaction was allowed to develop for 10 minutes at 30 °C, 100 RPM. Fluorescence intensity was determined with the Victor X5 plate reader (Perkin Elmer, λex = 355 nm, λem = 460 nm). IC50 values were calculated using GraphPad Prism 7 software by non-linear regression, log (inhibitor) vs. response – variable slope (four […]
(§2) 6. Culture of HCT116 cells
HCT116 cells were maintained on 100 mm or 60 mm culture dishes in Dulbecco's Modified Eagle Medium (Gibco) supplemented with 10% fetal bovine serum (Sigma) and 1X glutamine/penicillin/streptomycin (Gibco) . Once the cells reached ~90% confluency, they were washed with warm PBS (Sigma), trypsinised using TrypLETM Express solution (Gibco) and put into an incubator at 37°C for 5 minutes. […]
mins, 4 °C) and the supernatant was collected. Protein concentrations were quantified via Bradford Assay using Protein Assay Dye Reagent Concentrate (BIO -RAD). […]

HDAC1 = biological target: T2, HDAC1 (Homo sapiens, UniProt Q13547); test: HDAC1 protein level / degradation by immunoblot in HCT116 cells; format: cell-based; conditions: even at 10 μM
T2 construct: endogenous in cells; host or cells: HCT116
T2 sequence (Q13547 whole entry): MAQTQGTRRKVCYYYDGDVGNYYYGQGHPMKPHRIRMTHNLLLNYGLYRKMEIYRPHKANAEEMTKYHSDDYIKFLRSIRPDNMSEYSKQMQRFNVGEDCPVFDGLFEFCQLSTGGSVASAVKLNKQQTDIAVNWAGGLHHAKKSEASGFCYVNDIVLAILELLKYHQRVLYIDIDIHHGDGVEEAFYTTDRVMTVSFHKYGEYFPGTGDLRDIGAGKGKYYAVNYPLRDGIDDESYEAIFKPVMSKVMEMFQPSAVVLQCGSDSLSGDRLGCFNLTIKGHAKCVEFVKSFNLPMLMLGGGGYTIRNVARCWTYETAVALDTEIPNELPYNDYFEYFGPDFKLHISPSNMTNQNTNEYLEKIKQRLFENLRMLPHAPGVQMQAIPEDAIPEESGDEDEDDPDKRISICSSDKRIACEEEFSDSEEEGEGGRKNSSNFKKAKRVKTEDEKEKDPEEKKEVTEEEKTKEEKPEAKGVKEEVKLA
Experimental: as §1, with “Victor” for “Victor X5 plate reader (Perkin Elmer, λex = 355 nm, λem = 460 nm). IC50 values were calculated using GraphPad Prism 7 software by non-linear regression, log (inhibitor) vs. response – variable slope (four”
IC50 values were calculated using GraphPad
Prism 7 software by non-linear regression, log (inhibitor) vs. response – variable slope (four […]
as §2
HCT116 cells were maintained on 100 mm or 60 mm culture dishes in Dulbecco's Modified Eagle Medium (Gibco) supplemented with 10% fetal bovine serum (Sigma) and 1X glutamine/penicillin/streptomycin (Gibco) . Once the cells reached ~90% confluency, they were washed with warm PBS (Sigma), trypsinised using TrypLETM Express solution (Gibco) and put into an incubator at 37°C for 5 minutes. Once dissociated, cell media was used to dilute the cells into required

T1 sequence (O15379 whole entry): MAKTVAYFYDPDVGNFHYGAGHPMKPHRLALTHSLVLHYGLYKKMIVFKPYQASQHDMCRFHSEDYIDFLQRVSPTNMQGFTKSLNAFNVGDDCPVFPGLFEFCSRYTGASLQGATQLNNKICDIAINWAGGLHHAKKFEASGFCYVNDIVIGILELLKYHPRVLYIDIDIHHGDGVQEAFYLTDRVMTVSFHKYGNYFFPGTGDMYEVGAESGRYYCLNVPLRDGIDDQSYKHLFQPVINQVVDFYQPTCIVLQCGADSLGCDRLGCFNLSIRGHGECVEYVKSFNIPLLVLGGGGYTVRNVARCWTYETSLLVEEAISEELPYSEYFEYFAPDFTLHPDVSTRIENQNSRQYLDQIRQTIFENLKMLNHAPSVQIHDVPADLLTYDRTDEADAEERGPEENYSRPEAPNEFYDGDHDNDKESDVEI
T1 sequence (Q9Y618 whole entry partner): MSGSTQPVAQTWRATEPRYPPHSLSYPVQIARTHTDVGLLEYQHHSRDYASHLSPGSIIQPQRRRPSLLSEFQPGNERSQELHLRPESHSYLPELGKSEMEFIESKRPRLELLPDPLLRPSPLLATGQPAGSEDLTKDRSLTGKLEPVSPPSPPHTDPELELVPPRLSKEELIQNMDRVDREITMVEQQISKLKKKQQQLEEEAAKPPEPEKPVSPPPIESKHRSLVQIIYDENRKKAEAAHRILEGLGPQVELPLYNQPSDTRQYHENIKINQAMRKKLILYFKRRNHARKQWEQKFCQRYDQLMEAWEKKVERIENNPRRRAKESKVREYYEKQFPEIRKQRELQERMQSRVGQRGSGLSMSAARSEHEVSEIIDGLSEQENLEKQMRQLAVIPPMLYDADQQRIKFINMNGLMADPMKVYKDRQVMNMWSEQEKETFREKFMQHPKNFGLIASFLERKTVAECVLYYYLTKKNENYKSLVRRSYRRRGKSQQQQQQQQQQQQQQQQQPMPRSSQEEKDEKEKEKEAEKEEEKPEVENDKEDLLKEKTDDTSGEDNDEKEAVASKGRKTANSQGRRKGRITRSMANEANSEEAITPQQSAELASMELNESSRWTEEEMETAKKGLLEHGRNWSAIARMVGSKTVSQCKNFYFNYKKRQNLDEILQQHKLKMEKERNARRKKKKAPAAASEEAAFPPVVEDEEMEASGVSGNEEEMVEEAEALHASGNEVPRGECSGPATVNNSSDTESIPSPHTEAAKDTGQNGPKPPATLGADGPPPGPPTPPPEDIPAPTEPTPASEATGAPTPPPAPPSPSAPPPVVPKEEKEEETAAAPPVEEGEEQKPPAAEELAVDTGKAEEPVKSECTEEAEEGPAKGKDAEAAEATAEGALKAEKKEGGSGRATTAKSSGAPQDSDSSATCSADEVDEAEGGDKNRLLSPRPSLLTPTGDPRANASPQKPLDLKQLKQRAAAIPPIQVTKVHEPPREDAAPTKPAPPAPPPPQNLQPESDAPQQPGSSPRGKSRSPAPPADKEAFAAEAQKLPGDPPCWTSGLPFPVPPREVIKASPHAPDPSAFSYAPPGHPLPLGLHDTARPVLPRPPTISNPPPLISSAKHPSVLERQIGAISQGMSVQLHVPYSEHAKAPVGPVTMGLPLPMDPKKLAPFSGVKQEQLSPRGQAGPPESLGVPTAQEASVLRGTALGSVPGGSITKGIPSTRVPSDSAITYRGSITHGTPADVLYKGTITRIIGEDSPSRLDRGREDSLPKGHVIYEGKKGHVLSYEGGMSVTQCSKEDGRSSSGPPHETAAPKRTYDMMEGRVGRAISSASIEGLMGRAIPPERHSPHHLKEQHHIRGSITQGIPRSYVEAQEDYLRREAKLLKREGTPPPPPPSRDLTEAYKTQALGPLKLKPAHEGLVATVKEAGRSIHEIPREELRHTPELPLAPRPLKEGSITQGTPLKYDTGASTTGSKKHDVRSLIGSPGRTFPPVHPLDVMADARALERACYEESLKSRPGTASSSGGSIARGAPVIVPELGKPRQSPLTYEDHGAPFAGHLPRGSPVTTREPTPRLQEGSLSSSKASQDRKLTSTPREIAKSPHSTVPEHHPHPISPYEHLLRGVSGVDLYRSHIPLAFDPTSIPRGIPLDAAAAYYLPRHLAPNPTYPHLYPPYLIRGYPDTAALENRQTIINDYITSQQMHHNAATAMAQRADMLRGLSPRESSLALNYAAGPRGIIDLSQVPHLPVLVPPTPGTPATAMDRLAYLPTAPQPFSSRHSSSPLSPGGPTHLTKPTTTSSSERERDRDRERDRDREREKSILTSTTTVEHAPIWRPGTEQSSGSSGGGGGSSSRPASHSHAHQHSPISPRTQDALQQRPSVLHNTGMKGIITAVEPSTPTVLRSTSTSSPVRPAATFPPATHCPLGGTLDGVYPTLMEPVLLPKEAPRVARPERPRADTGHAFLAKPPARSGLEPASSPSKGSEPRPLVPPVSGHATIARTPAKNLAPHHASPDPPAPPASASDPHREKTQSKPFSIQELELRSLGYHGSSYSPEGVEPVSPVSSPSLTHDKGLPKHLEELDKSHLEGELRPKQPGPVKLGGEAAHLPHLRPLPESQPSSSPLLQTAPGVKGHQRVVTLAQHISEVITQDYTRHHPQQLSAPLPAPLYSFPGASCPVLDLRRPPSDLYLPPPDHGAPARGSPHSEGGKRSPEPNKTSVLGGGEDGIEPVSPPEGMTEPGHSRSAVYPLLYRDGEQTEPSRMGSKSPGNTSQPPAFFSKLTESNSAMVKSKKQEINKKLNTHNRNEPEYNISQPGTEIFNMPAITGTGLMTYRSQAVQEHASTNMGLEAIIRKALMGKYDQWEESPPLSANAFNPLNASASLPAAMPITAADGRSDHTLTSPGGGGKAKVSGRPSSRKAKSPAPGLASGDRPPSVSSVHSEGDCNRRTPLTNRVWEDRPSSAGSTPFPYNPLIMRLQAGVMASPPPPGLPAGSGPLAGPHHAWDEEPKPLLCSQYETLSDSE

degradation of HDAC3 (HDAC3): no degradation
degradation of HDAC1 (HDAC1): no degradation
Structure (SMILES): Cc1ncsc1-c1ccc(CNC(=O)[C@@H]2C[C@@H](O)CN2C(=O)[C@@H](NC(=O)CCCCCCCCCC(=O)N2CCN(c3cnc(C(=O)Nc4cc(-c5ccncc5)ccc4N)cn3)CC2)C(C)(C)C)cc1 [JPS062]
